This is an account of results in patent publication US20070009444A1, “Method for preparing powder exhibiting low susceptibility to electrification” (priority 2003, published 2007).

Assay type in all cases: physicochemical
A short description of series [1]: Observation of spray dried powder (transit performance, coloring, operability). As for the experimental part: Acetaminophen and PEG4000 were mixed at the following ratio: acetaminophen-PEG4000=2.8 g-701 mg (Mixed ratio 4:1, PEG adding ratio 0.25 (weight of PEG (mg) relative to 1 mg of pharmaceutical active compound)), acetaminophen-PEG4000=2.8 g-351 mg (Mixed ratio 8:1, PEG adding ratio 0.125), acetaminophen-PEG4000=2.8 g-176 mg (Mixed ratio 16:1, PEG adding ratio 0.06), and acetaminophen-PEG4000=14 g-437 mg (Mixed ratio 32:1, PEG adding ratio 0.03). The final concentration of acetaminophen was adjusted to 1.4% by weight by adding suitable amount of water and the solution was spray dried under the conditions mentioned below.
FIG. 1 is a photograph of the acetaminophen powder (PEG adding ratio 0.03) and FIG. 2 is a photograph of the acetaminophen powder(without adding PEG). • Spray drying condition • Spray dryer: Spray dryer SD-1000 (Tokyo Rikakikai Co., Ltd.) • Speed of pump: scale 30 (about 6 mL/min) • IN-let temperature: 170° C. • Out-let temperature: 95 to 100° C. • Drying air volume: 0.60 m^3/min • Spray drying pressure: 70 kPa
Compound (I-1) powder was manufactured by a similar manner to Example 2 except that PEG400 (111 mg) (PEG adding ratio 0.37) was used instead of PEG4000 and the final concentration of Compound (I-1) in the solution was adjusted to 19% by weight. […]

The nature of series [2]: Measurement of bulk density (3 cc vessel, tapped three times). The source says: As an index for charge suppression of the obtained powder, bulk. density of the powder may be examined rather than measuring surface potential of the powder. […] When the bulk density is not less than 0.25 g/cc, preferably 0.28 g/cc, suction by a machine and transfer from a filling machine to a filling vessel may be conducted favorably, and a certain operability must be secured. The bulk density is a value determined in the manner as described below. First, 3 cc of sample to be measured is put into a vessel, and then the vessel is lightly tapped several to 10 times, preferably about 3 times. When the bulk is reduced, powder is supplemented, and this operation is repeated. At the time when the bulk no longer changes, a sample weight per 1 cc is determined. The bulk density of lowly-charged powder determined in the method of the present invention is 1.5 times or more, preferably 1.6 times or more, and further preferably 1.8 times or more the “bulk density of highly-charged compound”, “bulk density of powder obtained by drying a liquid composition containing a highly-charged compound and an additive other than PEG” or “bulk density of powder obtained by drying a liquid composition containing a pharmaceutically active compound”.
The bulk density of the acetaminophen powder containing PEG4000 (PEG adding ratio 0.03) obtained in Example 1 and the Compound (I-1) powder containing PEG4000 obtained in Example 2 were measured.
The powder was added to a vessel to reach the scale of 3 cc in a dry box and tapped three times. When the bulk is reduced, powder is added to the vessel to reach the scale of 3 cc and the same operation was repeated.
When the bulk no longer changed at 3 cc, addition of the powder was stopped and the bulk density (g/cc) was measured at that time.
Bulk densities of the acetaminophen powder (without adding PEG) and the Compound (I-1) powder (without adding PEG) were measured by the same method as controls.

Series [3] is described as follows: Measurement of charge amount (Espartoanalyzer, sample mixed with iron powder 1:9, 500 V). The following applies: for Average of charge: average of two measurements. From the text:
In the present specification, the term “lowly-charged powder” means powder in which negative charge of surface potential is reduced (powder unsusceptible to negative charge) and encompasses positively charged powder. Concretely, it means powder having an average electric charge, measured with a particle charge distribution measuring device (for example, particle charge distribution measuring device using Laser Doppler speed meter), of not less than −2 q/m (namely, electric charge is negative and its absolute value is not more than 2, or electric charge is zero or positive value), preferably of not less than −1 q/m. The average electric charge is preferably not more than +5, more preferably not more than +3, and most preferably not more than +1. Measurement of electric charge may be conducted according to a manual of the device, and a condition and a measuring device are not particularly limited. For instance, after mixing a compound to be measured and iron powder in a ratio of about 1:9, about 1 g of mixture is collected. […]
400 mg of the acetaminophen powder containing PEG4000 (Acetaminophen:PEG=32:1, PEG adding ratio 0.03) obtained in Example 1 and 3600 mg of iron powder (TEFV-200/300 (registered trademark, Powdertech) as a carrier were filled into a glass vessel, and the mixture was mixed by hands for ten seconds. About 1 g of thus-obtained sample (true density of the particles: 1.20 g/cm^3) were collected and the charge amount was measured using Espartoanalyzer (Hosokawa Micron company). […]
Charge amount of the acetaminophen powder (without adding PEG) was measured by the same method as described above as a control (numbers of particles: 500).
Charge amount of each sample was measured twice and the average of the results are shown below.
Charge amount of the following samples were measured by the same method as Experiment 1. • i) 300 mg of Compound (I-1) […]

A short description of series [4]: Measurement of dissolution time (powder in 10 ml distilled water for injection, vial shaken). As for the experimental part: The dissolving time is determined by shaking a vessel containing 300 mg of sample to be measured and 10 mL of water. In the case of pharmaceuticals, the sample to be measured should contain 300 mg of pharmaceutically active compound, and may contain a pharmaceutical additive. The shaking manner and time are not particularly limited. Concretely, measurement may be conducted according to the method described in Test example 3 described later.
The Compound (I-1) powder containing PEG (about 300 mg) which was obtained in Example 2 or 3 was filled in a vial (the capacity to the shoulder is 20 ml). After 10 ml of distilled water for injection was added to the vial, the vial was shaken 20 times (arm length: about 20 centimeters, the amplitude: […] and shaking speed: 20 times/ten seconds), and the dissolution time was measured.
(§1) 300 mg of Compound (I-l) and 150 mg of D-mannitol were mixed with suitable amount of sodium hydroxide. The solutions having various concentration (pH 9.5 to 9.75) were prepared. Thus-obtained solutions were spray dried under the same conditions as Example 1. The dissolution time of the obtained powder was measured by the same method as the above-mentioned Experiment 3. The particle diameter was measured under the following conditions. • Measuring condition of dry powder tester • Dry powder tester: SK Laser micron sizer LMS-30 (SEISHIN ENTERPRISE Co., Ltd.) • Carrier fluid: compressed air […] • Sample: about 20 to 30 mg

Series [5] can be described thus: Particle diameter by dry powder tester (SK Laser micron sizer LMS-30). The following applies: no PEG, with D-mannitol and NaOH, spray dried. As for the experimental part: The method of measuring “average particle size” used herein is not particularly limited, and measurement may be conducted in accordance with a manual of the particle size meter to be used. For example, about 20 to 30 mg of powder to be measured for its diameter is taken, and placed in the particle size meter for conducting measurement.
as §1

Take `CC(=O)Nc1ccc(O)cc1` [Acetaminophen, acetaminophen]: the Coloring of powder entry is given as “a little coloring” in series [1] (spray dried solution containing only acetaminophen, without adding PEG (control)) and “non-coloring” in series [1] (spray dried with PEG4000, PEG adding ratio 0.25, 0.125, 0.06, 0.03 (all samples)). Also, the Bulk density is 0.659 g/cc in series [2] (solution 1.4% by weight, PEG4000, PEG adding ratio 0.03, spray dried) and 0.398 g/cc in series [2] (solution 1.4% by weight, without adding PEG, spray dried). Besides, the Average of charge is −1.43 q/m in series [3] (acetaminophen powder spray dried with PEG4000, PEG adding ratio 0.03) and −12.86 q/m in series [3] (acetaminophen powder without adding PEG, ratio 0).
As for `CC1(C)CC[C@]2(C(=O)[O-])CC[C@]3(COC(=O)/C=C/c4cc(O)ccc4NC(=O)/C=C/C(=O)[O-])C(=CC[C@@H]4[C@@]5(C)CCC(=O)C(C)(C)[C@@H]5CC[C@]43C)[C@@H]2C1.[Na+].[Na+]` [Compound (I-1)], the Dissolution time in series [4] (no PEG, with D-mannitol and NaOH, solution 5% by weight (pH 9.5), spray dried) is 40 s; in series [4] (no PEG, with D-mannitol and NaOH, solution 10% by weight, spray dried), 10 s; in series [4] (no PEG, with D-mannitol and NaOH, solution 19% by weight (pH 9.75), spray dried) it was “under 20 second”; in series [4] (solution before drying 5% by weight, PEG4000, PEG adding ratio 0.37), 10 s; in series [4] (solution before drying 5% by weight, non-additive, PEG adding ratio 0), 40 s; in series [4] (solution before drying 19% by weight, PEG400, PEG adding ratio 0.37), 10 s. Further, the Bulk density in series [2] (solution 18% by weight, PEG4000, PEG adding ratio 0.37, spray dried) is 0.395 g/cc; in series [2] (solution 18% by weight, without adding PEG, spray dried), 0.206 g/cc. Besides, the Particle diameter in series [5] (solution 5% by weight (pH 9.5)) stood at 8.9 μm; in series [5] (solution 10% by weight) it was 10.1 μm; in series [5] (solution 19% by weight (pH 9.75)), 11.6 μm. Moreover, the Electric charge in series [3] (Experiment 2; i) non-additive, 3000 particles; ii) PEG4000 + D-mannitol, PEG adding ratio 0.4, 505 particles) is reported as −2.57 q/m.
